This is an account of results in ChEMBL document CHEMBL1128706, “Nonpeptidic potent HIV-1 protease inhibitors: (4-hydroxy-6-phenyl-2-oxo-2H- pyran-3-yl)thiomethanes that span P1-P2' subsites in a unique mode of active site binding” (J Med Chem, 1995).

Data set [1] addresses Human immunodeficiency virus type 1 protease (Human immunodeficiency virus 1, UniProt Q72874). The data set can be described thus: Ability to inhibit purified recombinant HIV-1 protease.
A further data set has as its target T1, Renin (Homo sapiens, UniProt P00797).
T1 sequence (P00797 whole entry): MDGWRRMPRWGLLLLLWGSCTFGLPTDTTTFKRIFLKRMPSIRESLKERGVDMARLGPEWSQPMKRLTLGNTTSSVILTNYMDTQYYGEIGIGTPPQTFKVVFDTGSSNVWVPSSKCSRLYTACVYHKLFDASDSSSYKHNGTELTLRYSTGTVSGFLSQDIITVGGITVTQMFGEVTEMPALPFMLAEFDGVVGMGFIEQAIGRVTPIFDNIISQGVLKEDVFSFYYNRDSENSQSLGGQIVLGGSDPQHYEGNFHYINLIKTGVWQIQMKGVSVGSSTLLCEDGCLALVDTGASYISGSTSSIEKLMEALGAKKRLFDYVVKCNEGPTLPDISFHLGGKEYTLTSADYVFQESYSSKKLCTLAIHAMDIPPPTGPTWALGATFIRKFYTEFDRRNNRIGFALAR
The data set can be described thus: Ability to inhibit the human recombinant renin aspartic protease enzyme.

For the next data set, the target named is Cathepsin D (Homo sapiens, UniProt P07339). The data set can be described thus: Ability to inhibit the human Native cathepsin D aspartic protease enzyme.
Sequence of Cathepsin D (P07339 65-162 limits assumed): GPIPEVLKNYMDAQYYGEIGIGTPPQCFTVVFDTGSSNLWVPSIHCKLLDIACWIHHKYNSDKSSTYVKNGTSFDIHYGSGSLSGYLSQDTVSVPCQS
Sequence of Cathepsin D (P07339 169-412 limits assumed): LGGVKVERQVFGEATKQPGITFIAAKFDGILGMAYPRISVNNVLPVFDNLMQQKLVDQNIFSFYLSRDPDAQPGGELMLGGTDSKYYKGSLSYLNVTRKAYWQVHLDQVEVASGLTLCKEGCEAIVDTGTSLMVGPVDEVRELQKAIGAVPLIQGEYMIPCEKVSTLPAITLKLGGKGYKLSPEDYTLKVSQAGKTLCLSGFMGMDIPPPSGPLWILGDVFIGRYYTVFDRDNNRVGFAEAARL
Data set [2] is described as follows: In vitro toxic concentration against HIV-1 IIIb H9-infected cells. Type of data set: cell-based. The conditions noted are these: human, HIV-1 IIIb-infected H9 cells; read-out: TC50 (the source's name).
A further data set concerns the target T2, Cathepsin E (Homo sapiens, UniProt P14091).
T2 sequence (P14091 whole entry): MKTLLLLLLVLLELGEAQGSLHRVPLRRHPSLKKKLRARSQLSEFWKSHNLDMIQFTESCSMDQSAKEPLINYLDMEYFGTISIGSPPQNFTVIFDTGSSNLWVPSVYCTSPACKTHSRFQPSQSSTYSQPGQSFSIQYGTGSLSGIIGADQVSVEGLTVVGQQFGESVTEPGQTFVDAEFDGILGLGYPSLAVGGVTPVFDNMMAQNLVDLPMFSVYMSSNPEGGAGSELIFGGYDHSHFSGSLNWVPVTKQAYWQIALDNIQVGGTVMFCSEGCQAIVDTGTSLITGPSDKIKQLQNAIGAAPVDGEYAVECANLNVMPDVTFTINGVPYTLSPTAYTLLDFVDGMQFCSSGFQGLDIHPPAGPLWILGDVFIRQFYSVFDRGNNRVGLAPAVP
Put plainly: Ability to inhibit the human Native cathepsin E aspartic protease enzyme.

As to `CC(C)CC(Sc1ccccc1)c1c(O)cc(-c2ccccc2)oc1=O` (stereo unspecified), in data set [1], the 50% inhibitory concentration (IC50) amounted to 410 nM.

For the compound `O=c1cc(-c2ccccc2)oc(O)c1C(CC1CCCC1)SC1CCCCC1` (stereo unspecified), the IC50 in data set [1] was 541 nM.

`CC(C)(C)CC(SC1CCCCC1)c1c(O)cc(-c2ccccc2)oc1=O` (stereo unspecified): the half-inhibitory concentration (IC50) in data set [1] is 300 nM.

With `O=c1cc(-c2ccccc2)oc(O)c1C(CC1CC1)SC1CCCC1` (stereo unspecified), the Ki in data set [1] came out at 0.069 nM.

Regarding `O=c1cc(-c2ccccc2)oc(O)c1C(SC1CCCCC1)c1ccccc1` (stereo unspecified), in data set [1], the IC50 amounted to 480 nM.

For `O=c1cc(-c2ccccc2)oc(O)c1CSc1ccccc1`, the IC50 in data set [1] was determined as 84300 nM.

For the compound `O=c1cc(-c2ccccc2)oc(O)c1C(Sc1ccc2ccccc2c1)c1ccccc1` (stereo unspecified), in data set [1], the IC50 came out at 2450 nM.

Turning to `O=c1cc(-c2ccccc2)oc(O)c1C(CC1CC1)SCc1ccccc1` (stereo unspecified), the IC50 is more than 10000 nM at Renin, more than 40000 nM on Cathepsin D, more than 40000 nM on Cathepsin E and 84 nM in data set [1]. The CC50 in data set [2] was 68000 nM.

For `O=c1cc(-c2ccccc2)oc(O)c1C(CC1CC1)SC1CCCCC1` (stereo unspecified), the CC50 in data set [2] was 67000 nM. Further, the IC50 in data set [1] was found to be 147 nM.

For `CC(C)CC(SCc1ccccc1)c1c(O)cc(-c2ccccc2)oc1=O` (stereo unspecified), the CC50 in data set [2] is 67000 nM. Also, the IC50 in data set [1] was 260 nM.

As to `O=c1cc(-c2ccccc2)oc(O)c1C(Sc1ccccc1)c1ccc2ccccc2c1` (stereo unspecified), the IC50 in data set [1] was 7820 nM.

On to `CC(C)CC(SC1CCCCC1)c1c(O)cc(-c2ccccc2)oc1=O` (stereo unspecified), for which, in data set [1], the IC50 was found to be 320 nM.

With `O=c1cc(-c2ccccc2)oc(O)c1C(SCc1ccccc1)c1ccccc1` (stereo unspecified), the CC50 in data set [2] was determined as 61000 nM. Further, in data set [1], the IC50 amounted to 480 nM.

As for `O=c1cc(-c2ccccc2)oc(O)c1C(Sc1ccccc1)c1ccccc1` (stereo unspecified), the IC50 in data set [1] worked out at 780 nM.

Consider `CC(C)CC(SC1CCCC1)c1c(O)cc(-c2ccccc2)oc1=O` (stereo unspecified), for which the IC50 is more than 10000 nM on Renin, more than 40000 nM on Cathepsin D, more than 40000 nM against Cathepsin E and 58 nM in data set [1]. Besides, in data set [2], the CC50 was found to be 28000 nM.

In the case of `CC(C)CCC(Sc1ccccc1)c1c(O)cc(-c2ccccc2)oc1=O` (stereo unspecified), in data set [1], the half-maximal inhibitory concentration (IC50) is 390 nM.

As for `O=c1cc(-c2ccccc2)oc(O)c1C(Sc1ccccc1)C1CCCCC1` (stereo unspecified), the IC50 in data set [1] was 2440 nM.

`O=c1cc(-c2ccccc2)oc(O)c1C(SC1CCCC1)C1CCCC1` (stereo unspecified): the CC50 in data set [2] was 70000 nM. The IC50 in data set [1] amounted to 225 nM.

Turning to `CC(C)CC(SCC1CCCCC1)c1c(O)cc(-c2ccccc2)oc1=O` (stereo unspecified), the IC50 in data set [1] stood at 848 nM.
